Experimental findings from patent US8129527B2, “Analogs of dehydrophenylahistins and their therapeutic use” (Nereus Pharmacuticals, Inc., priority 2006, dated 2012) are described below.

≈ marks a conversion by molar mass, not a printed value. Read-outs that look alike come from different tables or passages of the source. Marks after values point to notes of the source that are not given here.

In data set [1] the test system is HT-29 human colorectal carcinoma cells. As to the kind of experiment: Cytotoxic effect against HT-29 cells (Table 30). In kind it is cell-based. The following applies: HT-29 cells, read-out: EC50 (M) Mean. As for the experimental part: The following additional dehydrophenylahistin derivatives were synthesized according to the methods described herein and their cytotoxic effect against HT-29 human colorectal carcinoma cells were determined.

Data set [2] relates to MES-SA/Dx5 (Taxol Resistant) human uterine sarcoma. Put plainly: Drug resistant cell line pair, cytotoxicity (Example 10B). The note with it: vs MES-SA. In kind it is cell-based. An excerpt:
1) Human Uterine Sarcoma Tumor Cell Line Pair: MES-SA (Taxol Sensitive) and MES-SA/Dx5 (Taxol Resistant).

The subject of a further data set is HT-29 human colon cells. Put plainly: Tumor cytotoxicity assay, resazurin fluorescence, 48 h (Example 6). In kind it is cell-based. The following applies: for EC50: Homo sapiens; for cytotoxic activity against HT-29 cells: in words. For orientation: Resazurin is reduced to fluorescent resorufin, in cell work by metabolically active cells.
Another data set deals with Trichophyton rubrum. As to the kind of experiment: Antifungal susceptibility testing, broth dilution (MIC/MFC). In kind it is cell-based. The following applies: Trichophyton species. The procedure: (§1) Specifically, disclosed compounds were evaluated alongside commercially available microtubulin inhibitors as well as recognized antifungal agents.
(§2) Microorganisms against which these compounds were tested included: Candida albicans, Candida glabrata, Aspergillus fumigatus, Trichophyton rubrum, Trichophyton mentagrophytes, Epidermophyton floccosum. With the exception of Candida glabrata (one isolate), two isolates of each species were tested.
(§3) The minimum lethal concentration (MLC) was determined by plating […] from the MIC concentration and each concentration above the MIC. […] When a MIC was obtained, a minimum fungicidal concentration (MFC) was determined to assess the fungistatic/fungicidal nature of the compound.
On the technique in general: Dilution methods test growth across graded concentrations, often in twofold steps.

Another data set concerns HT-29 human colon tumor. Put plainly: HT-29 Human Colon Tumor Xenograft Model. The note with it: for Chemotherapeutic Agent Result TGI %: CPT-11 alone 100 ip qwx3. In kind it is in vivo. As for the experimental part: Selected novel compounds were administered as monotherapy via the intraperitoneal (i.p.) route at the doses indicated for the individual study; for the combination studies the selected reference chemotherapy agents were injected 15-30 min prior to the compound.
Saline dilutions are used to achieve the injection concentrations used for the reference compounds.
Animals were implanted subcutaneously (s.c.) by trocar with fragments of HT-29 tumors harvested from s.c. growing tumors in nude mice hosts. When the tumor size reached 5 mm×5 mm (about 10-17 days) the animals were matched into treatment and control groups. Mice were weighed twice weekly and tumor measurements were obtained using calipers twice weekly, starting on Day 1. The tumor measurements were converted to estimated mg tumor weight using the formula (W^2×L)/2. When the estimated tumor weight of the control group reached an average of 1000 mg the mice were weighed, sacrificed and the tumor removed.
A general note: In xenograft studies the graft and the host belong to different species.

For the next data set, the system named is Candida albicans. Put plainly: Antifungal susceptibility testing, broth dilution (MIC/MFC). The format is cell-based. The procedure: as §1, §2, §3
For the next data set, the system named is Candida glabrata. The data set is described as above. In kind it is cell-based. The note with it: C. glabrata. The procedure:
as §1, §2, §3

Another data set deals with Aspergillus fumigatus. As to the kind of experiment: Antifungal susceptibility testing, broth dilution (MIC/MFC). The format is cell-based. The following applies: Aspergillus fumigatus, A. fumigatus isolate #1; read-out: MIC. The procedure:
as §1, §2, §3

Where [3] appears, read: Colon HT-29 (3 studies), CPT-11 Days 1, 8, 15 alone.

As usually defined, the EC50 is the concentration needed to bring the measured effect to its halfway point. With `CC(C)(C)c1ocnc1/C=c1\[nH]c(=O)/c(=C/c2cccc(C(=O)c3ccc(CNC(=O)CCCCCNC(=O)CCCCCNC(=O)CCCC[C@@H]4SC[C@H]5NC(=O)N[C@@H]45)cc3)c2)[nH]c1=O` [Compound 2545], in [1], the EC50 is 1.1e-06 M.

In the case of `COc1cccc2c1C(=O)c1c(O)c3c(c(O)c1C2=O)C[C@@](O)(C(=O)CO)C[C@@H]3O[C@H]1C[C@H](N)[C@H](O)[C@H](C)O1` [doxorubicin, Doxorubicin, reference compound], the “reduced susceptibility of the MES-SA/DX5 cell line” value in data set [2] is reported as 34 fold.

In the case of `COc1cc(/C=c2\[nH]c(=O)/c(=C/c3nc[nH]c3C(C)(C)C)[nH]c2=O)cc(OC)c1OC` [KPU-11, tBu-ΔPLH-3,4,5-triOMe], the EC50 in the data set with HT-29 human colon cells (HT-29, read-out: EC50 HT-29, Table 3, cells printed in μM) was over 20 µM. For the same molecule, the “cytotoxic activity against HT-29 cells” value in the data set on HT-29 human colon cells was “also showed activity”. Besides, the “antifungal potency compared with griseofulvin” value in the data set on Trichophyton rubrum is “equivalent in potency or in some cases more potent than griseofulvin”.

On to `COc1ccc(/C=c2\[nH]c(=O)/c(=C/c3nc[nH]c3C(C)(C)C)[nH]c2=O)c(OC)c1OC` [KPU-17, tBu-ΔPLH-2,3,4-triOMe], for which the EC50 with HT-29 human colon cells (HT-29, Table 3, read-out: EC50 (nM) HT-29) stood at 4.06 µM. For the same molecule, the “cytotoxic activity against HT-29 cells” value in the data set on HT-29 human colon cells is listed as “also showed activity”. For the same molecule, the “antifungal potency compared with griseofulvin” value in the data set on Trichophyton rubrum is reported as “equivalent in potency or in some cases more potent than griseofulvin”.

As to `CCc1c2c(nc3ccc(OC(=O)N4CCC(N5CCCCC5)CC4)cc13)-c1cc3c(c(=O)n1C2)COC(=O)[C@]3(O)CC` [CPT-11, Irinotecan, reference compound], the “Tumor Growth Inhibition (%) Reference Agent” value with HT-29 human colon tumor (setting [3]) is on record as 37 ± 3%. Moreover, in the data set on HT-29 human colon tumor (setting [3]), the “Tumor Regression (#/total) Reference Agent” value was 0/30. The results for the “Chemotherapeutic Agent Result TGI %” value in the data set with HT-29 human colon tumor (Study 2139), with HT-29 human colon tumor (Study 2164) and with HT-29 human colon tumor (Study 2288) were 32.7%, 39* % and 36.5* %, respectively. Besides, in the data set with HT-29 human colon tumor (study of KPU-2, KPU-35 and t-butyl-phenylahistin +/- CPT-11), the “TGI vs NCI criterion” value was “did not reach this level”.

As usually defined, the MFC is the smallest concentration meeting the test's criterion for killing the fungus. Broadly, the MIC is the least concentration at which growth counts as inhibited. Turning to `C[C@@H]1[C@H](O)[C@@H](C)/C=C/C=C/C=C/C=C/C=C/C=C/C=C/[C@H](O[C@@H]2O[C@H](C)[C@@H](O)[C@H](N)[C@@H]2O)C[C@@H]2O[C@](O)(C[C@@H](O)C[C@@H](O)[C@H](O)CC[C@@H](O)C[C@@H](O)CC(=O)O[C@H]1C)C[C@H](O)[C@H]2C(=O)O` [amphotericin B, Amphotericin B], the MFC in the data set with Candida albicans (C. albicans 10231) came to 0.5 µg/mL (≈ 0.541 µM); in the data set on Candida albicans (C. albicans 90028), 0.5 µg/mL (≈ 0.541 µM); in the data set on Candida glabrata it was 1 µg/mL (≈ 1.08 µM). Moreover, the MIC against Candida albicans (C. albicans 10231) is 0.5 µg/mL (≈ 0.541 µM); against Candida albicans (C. albicans 90028), 0.5 µg/mL (≈ 0.541 µM); with Candida glabrata it was 1 µg/mL (≈ 1.08 µM).

The melting point is the temperature, or range, at which the solid turns liquid. Molecule `CC(C)(C)c1ocnc1/C=c1\[nH]c(=O)/c(=C/c2cn(S(=O)(=O)c3ccccc3)c3ccccc23)[nH]c1=O` [KPU-239, 3-{(Z)-1-[5-(tert-Butyl)-1H-4-oxazolyl]methylidene}-6-[(Z)-1-(phenylsulfonyl-3-indolyl)methlidene]-2,5-piperazinedione] came in with a melting point of 133 to 135 °C.

The molecule `CC(C)(C)c1ocnc1/C=c1\[nH]c(=O)/c(=C/c2cccs2)[nH]c1=O` gave a melting point of 211 to 213 °C.

With `CC(C)(C)c1ocnc1/C=c1\[nH]c(=O)/c(=C/c2cccc(Br)c2)[nH]c1=O` [KPU-212, 3-{(Z)-1-[5-(tert-Butyl)-1H-4-oxazolyl]methylidene}-6-[(Z)-1-(3-bromophenyl)methlidene]-2,5-piperazinedione], the melting point is 170 to 172 °C.

In turn, `CCOc1cccc(/C=c2\[nH]c(=O)/c(=C/c3ncoc3C(C)(C)C)[nH]c2=O)c1` [KPU-210, 3-{(Z)-1-[5-(tert-Butyl)-1H-4-oxazolyl]methylidene}-6-[(Z)-1-(3-ethoxyphenyl)methlidene]-2,5-piperazinedione] yielded a melting point of 124 to 126 °C.

Molecule `COc1ccc2ccccc2c1/C=c1\[nH]c(=O)/c(=C/c2ncoc2C(C)(C)C)[nH]c1=O` [KPU-230, 3-{(Z)-1-[5-(tert-Butyl)-1H-4-oxazolyl]methylidene}-6-[(Z)-1-(2-methoxy-1-naphthyl)methlidene]-2,5-piperazinedione] had a melting point of 234 to 236 °C.

In turn, `Cc1cccc(/C=c2\[nH]c(=O)/c(=C/c3ncoc3C(C)(C)C)[nH]c2=O)c1` returned a melting point of 151 to 153 °C.

`CCOc1ccc2ccccc2c1/C=c1\[nH]c(=O)/c(=C/c2ncoc2C(C)(C)C)[nH]c1=O` [KPU-229, 3-{(Z)-1-[5-(tert-Butyl)-1H-4-oxazolyl]methylidene}-6-[(Z)-1-(2-ethoxy-1-naphthyl)methlidene]-2,5-piperazinedione]: the melting point was 201 to 203 °C.

For `CC(C)(C)c1[nH]cnc1/C=C1\NC(=O)[C@H](Cc2ccccc2)NC1=O` [t-butylphenylahistin], in the data set with Trichophyton rubrum, the “antifungal potency compared with griseofulvin” value was “equivalent in potency or in some cases more potent than griseofulvin”.

The molecule `CC(C)(C)c1ocnc1/C=c1\[nH]c(=O)/c(=C/c2cc3ccccc3n2S(=O)(=O)c2ccccc2)[nH]c1=O` returned a melting point of 145 to 147 °C.

`CCC(C)n1ncn(-c2ccc(N3CCN(c4ccc(OCC5COC(Cn6cncn6)(c6ccc(Cl)cc6Cl)O5)cc4)CC3)cc2)c1=O` (stereo not shown) [itraconazole, Itraconazole, reference compound]: the MIC in the data set on Aspergillus fumigatus came to 1 µg/mL (≈ 1.42 µM).

As to `CC(C)(C)c1ocnc1/C=c1\[nH]c(=O)/c(=C/c2cccc(C(F)(F)F)c2)[nH]c1=O`, the melting point was 243 to 245 °C.

Consider `CC(C)(C)c1ocnc1/C=c1\[nH]c(=O)/c(=C/c2ccoc2)[nH]c1=O` [KPU-217, 3-{(Z)-1-[5-(tert-Butyl)-1H-4-oxazolyl]methylidene}-6-[(Z)-1-(3-furyl)methlidene]-2,5-piperazinedione], for which the melting point is 164 to 166 °C.

In turn, `Cc1ccsc1/C=c1\[nH]c(=O)/c(=C/c2ncoc2C(C)(C)C)[nH]c1=O` [KPU-219, 3-{(Z)-1-[5-(tert-Butyl)-1H-4-oxazolyl]methylidene}-6-[(Z)-1-(3-methyl-2-thienyl)methlidene]-2,5-piperazinedione] gave a melting point of 142 to 144 °C.

Molecule `CC(C)(C)c1ocnc1/C=c1\[nH]c(=O)/c(=C/c2ccccc2F)[nH]c1=O` [KPU-214, 3-{(Z)-1-[5-(tert-Butyl)-1H-4-oxazolyl]methylidene}-6-[(Z)-1-(2-fluorophenyl)methlidene]-2,5-piperazinedione] gave a melting point of 170 to 172 °C.

The molecule `CC(C)(C)c1ocnc1/C=c1\[nH]c(=O)/c(=C/CCc2ccccc2)[nH]c1=O` [KPU-228, 3-{(Z)-1-[5-(tert-Butyl)-1H-4-oxazolyl]methylidene}-6-[(Z)-1-(phenylpropyl)methlidene]-2,5-piperazinedione] registered a melting point of 180 to 182 °C.

In the case of `CCCCNC(=O)n1c(NC(=O)OC)nc2ccccc21` [benomyl, Benomyl], the MFC with Candida albicans (Candida albicans, C. albicans 90028, read-out: MFC) was over 512 µg/mL; in the data set with Candida glabrata (Nakaseomyces glabratus, read-out: MFC), over 512 µg/mL. The MIC in the data set with Candida albicans (Candida albicans, C. albicans 90028, read-out: MIC) turned out to be 64 µg/mL (≈ 220 µM); in the data set on Candida glabrata (Nakaseomyces glabratus, read-out: MIC), 64 µg/mL (≈ 220 µM).

`CC(C)(C)c1ocnc1/C=c1\[nH]c(=O)/c(=C/c2cccc3ccccc23)[nH]c1=O` came in with a melting point of 168 to 170 °C.

On to `CC(C)(C)c1ocnc1/C=c1\[nH]c(=O)/c(=C/c2c(F)ccc(F)c2F)[nH]c1=O` [KPU-238, 3-{(Z)-1-[5-(tert-Butyl)-1H-4-oxazolyl]methylidene}-6-[(Z)-1-(2,36-trifluorophenyl)methlidene]-2,5-piperazinedione], for which the melting point was 212 to 214 °C.

Regarding `CC(C)(C)c1ocnc1/C=c1\[nH]c(=O)/c(=C/c2ccc(-c3cccs3)s2)[nH]c1=O` [KPU-234, 3-{(Z)-1-[5-(tert-Butyl)-1H-4-oxazolyl]methylidene}-6-[(Z)-1-(2,2′-bithienyl)methlidene]-2,5-piperazinedsione], the melting point was in the range of 212 to 214 °C.

The molecule `C=Cc1cccc(/C=c2\[nH]c(=O)/c(=C/c3ncoc3C(C)(C)C)[nH]c2=O)c1` came in with a melting point of 150 to 152 °C.

In turn, `CC(C)(C)c1ocnc1/C=c1\[nH]c(=O)/c(=C/c2cc3ccccc3s2)[nH]c1=O` returned a melting point of 225 to 227 °C.

Molecule `CC(C)(C)c1ocnc1/C=c1\[nH]c(=O)/c(=C/c2ccc3nsnc3c2)[nH]c1=O` yielded a melting point of 234 to 236 °C.

As for `COc1cc([C@@H]2c3cc4c(cc3[C@@H](O[C@@H]3O[C@@H]5CO[C@@H](C)O[C@H]5[C@H](O)[C@H]3O)[C@H]3COC(=O)[C@H]23)OCO4)cc(OC)c1O` [etoposide, Etoposide, reference compound], the “reduced susceptibility of the MES-SA/DX5 cell line” value in data set [2] came out at 60 fold.
